From patent US20180066004A9, “MITOCHONDRIA-TARGETING PLATINUM(IV) PRODRUG” (priority 2014, published 2018)

Tests used:
[1] = test system: human mesenchymal stem cells (hMSCs)
Description: (§1) PC3 cells (2000 cells/well), A2780/CP70 cells (2000 cells/well), SHSY-5Y (2000 cells/well), and MSC (2000 cells/well) were plated on a 96 well plate and allowed to grow overnight. The media was changed and increasing concentrations of each formulation was added. […] Control values were set at 0% cytotoxicity or 100% cell viability.

[2] = test system: PC3 cells; experiment: XF24 MitoStress assay (OCR), PC3; assay type: cell-based, human; settings: 10 μM with respect to Pt, 12 h
Text: (§2) Mitochondrial Toxicity of T-NP. […] Many TPP-based small molecules were described to disrupt ΔΨm, uncouple OXPHOS, and inhibit mitochondrial respiration. Preclinical mitochondrial toxicology tests can have high positive predictive value. We examined Empty-T-NP, Empty-nontargeted-NPs (NT-NP), and DBCO-TPP induced changes in mitochondrial respiration of prostate cancer (PCa) PC3 cells and cisplatin resistant ovarian cancer A2780/CP70 cells as a measure of mitochondrial toxicity (FIG. 3B). The oxygen consumption rate (OCR) of cells is an important indicator of normal mitochondrial functions. Thus, OCR can be used as a parameter to study TPP-induced mitochondrial toxicity.
(§3) After 12 h, OCR was measured and the effects of metabolic modulators oligomycin, carbonyl cyanide 4-(trifluoromethoxy)phenylhydrazone (FCCP), antimycin A, and rotenone allowed determination of multiple parameters of mitochondrial function (FIG. 3B). […] Several parameters linked to mitochondrial respiration; spare respiratory capacity, coupling efficiency, basal respiration, ETC accelerator response, and ATP coupler response were calculated from the OCR (pMoles/min) vs. Time (min) traces in FIG. 3B.
(§4) Mitochondrial Bioenergetics. We next investigated basal respiration, coupling efficiency, and spare respiratory capacity in response to Platin-M and its NPs using a XF24 MitoStress assay kit (FIG. 5). To determine whether accumulation of Platin-M inside the mitochondrial matrix of PC3 or A2780/CP70 cells inhibited mitochondrial respiration, we measured oxygen consumption rates (OCRs) in these cells as a way of assessing OXPHOS. […] PC3 or A2780/CP70 cells were treated with Platin-M, cisplatin, T-Platin-M-NPs, NT-Platin-M-NPs for 12 h.
(§5) Mito-stress Test Analysis: Different parameters of respiration: basal respiration, coupling efficiency, and spare respiratory capacity were investigated by using Seahorse XF-24 cell Mito Stress Test Kit. Prior to the assay, XF sensor cartridges were hydrated. To each well of an XF utility plate, 1 mL of Seahorse Bioscience calibrant was added and the XF sensor cartridges were placed on top of the utility plate, and kept at 37° C. incubator without CO2 for a minimum of 12 h. PC3, A2780-CP70, SH-SY5Y, and H9C2 (FIG. S18) cells were cultured in XF24-well cell culture microplates (Seahorse Bioscience) at a density of 2.5×10^4 cells/well (except for H9C2, cell density of this cell line: 5×10^4 cells/well) (0.32 cm2) in 200 μL growth medium and then incubated for 24 h at 37° C. in 5% CO2 atmosphere. […] After 12 h, all but 50 μL of the culture medium was removed from each well and the cells were rinsed two times with 500 μL of XF stress test glycolysis optimization medium pre-warmed to 37° C. and finally 450 μL of glucose depleted optimization medium was added to each well and the plate was placed at 37° C. without CO2 for 1 h prior to assay. Different parameters of respiration were calculated by subtracting the average respiration rates before and after the addition of the electron transport inhibitors oligomycin (1.0 μM), trifluorocarbonylcyanide phenylhydrazone or FCCP (1.0 μM), an ionophore that is a mobile ion carrier, and a mixture of antimycin-A (1.0 μM) which is a complex III inhibitor and rotenone (1.0 μM), a mitochondrial inhibitor that prevents the transfer of electrons from the Fe-S center in Complex I to ubiquinone. The parameters calculated included: basal respiration (baseline respiration minus antimycin-A post injection respiration), ATP turnover (baseline respiration minus oligomycin post injection respiration), maximal respiratory capacity (FCCP stimulated respiration minus antimycin-A post injection respiration) and reserve respiratory capacity (FCCP stimulated respiration minus baseline respiration). Test articles on each well had four replicates (data not shown).

[3] = test system: cisplatin resistant A2780/CP70 cells; experiment: XF24 MitoStress assay (OCR), A2780/CP70; assay type: cell-based, human; settings: 10 μM with respect to Pt, 12 h; for ATP-linked respiration on addition of oligomycin / basal OCR levels versus control cells / stimulation of mitochondrial respiration with FCCP after oligomycin: A2780/CP70
Text: as §2, §3, §4, §5

[4] = test system: mtDNA; experiment: mtDNA-Pt adduct quantification; assay type: cell-based, human; settings: treated PC3 cells
Description: (§6) This might be due to the fact that for T-NP system, Platin-M needs to be released from the NPs prior to reduction to cisplatin and subsequent mtDNA interaction and all Platin-M might not have released from the NPs during the course of this experiment, mtDNA isolation was carried out after 12 h which corresponds to only ˜50% of Platin-M will be released from T-NPs (FIG. 4B).
(§7) mtDNA-Pt and nDNA-Pt Adduct Quantification: The mitochondria and nuclei were isolated according to protocol mentioned before. These fractions were further fractionated in order to isolate mitochondrial and genomic DNA, respectively. For mitochondrial DNA (mtDNA), the freshly isolated mitochondria were re-suspended in 35 μL of mitochondrial lysis buffer. To this, 5 μL of the enzyme mix was added. This was incubated at 50° C. in water bath until the solution turned clear (˜1 h). To this, 100 μL of absolute ethanol was added and the resulting solution was incubated for 10 min at −20° C. […] The resulting solution was quantified for the amount and purity of DNA by UV-Vis spectroscopy (260/280 nm) and the amount of Pt by ICP-MS. […] Reprecipitation with 70% ethanol in nanopure H2O was performed until the ratio of the absorbances at 260 and 280 nm was […]. […] The resulting solution was quantified for the amount of DNA by UV-Vis spectroscopy (260/280 nm) and the amount of Pt by ICP-MS.

[5] = Electrochemistry of Platin-M (redox potential); assay type: physicochemical; settings: 1 mM in 20% DMF-PBS, 0.1 M KCl, 25° C.
Text: We recently developed a cycloaddition approach to introduce numerous functionalities on to Pt(IV) with high efficiency by keeping in mind that copper(I) based click chemistry can also cause reduction of Pt(IV). A TPP moiety was introduced on dibenzocyclooctyne (DBCO) derivative to result DBCO-TPP (FIG. 2, FIGS. S1-S4). A strain-promoted alkyne-azide cycloaddition (SPAAC) reaction between an azide-Pt(IV) precursor Platin-Az (Pathak, R. K., et al. Chem Eur J DOI: 10.1002/chem.201402573) recently developed by us and DBCO-TPP resulted Platin-M with high efficiency (FIG. 2). The prodrug Platin-M was characterized using microanalysis and spectroscopic techniques (FIGS. S5-S10). Feasible cellular reduction of Pt(IV) prodrug is required to release active cisplatin.
Electrochemistry of Platin-M: Electrochemical measurements were made at 25° C. on an analytical system model CHI 920c potentiostat from CH Instruments, Inc. (Austin, Tex.). A conventional three-electrode set-up comprising a glassy carbon working electrode, platinum wire auxiliary electrode, and an Ag/AgCl (3M KCl) reference electrode was used for electrochemical measurements. The electrochemical data were uncorrected for junction potentials. KCl was used as a supporting electrolyte. Platin-M (1 mM) solutions were prepared in 20% DMF-phosphate buffered saline (PBS) of pH 6.0 and 7.4 with 0.1 M KCl and voltammograms were recorded at different scan rates (data not shown).

[6] = Platin-M ability to form micelles (nanoprecipitation, DLS); assay type: physicochemical; settings: DMF solution of Platin-M into water
Text: Morphology of T-Platin-M and NT-Platin-M-NPs was investigated using transmission electron microscopy (TEM) (FIG. 4A). […] Percent loading of Platin-M varied between 6 to 27% based on the percent feed with respect to polymer feed (FIG. 4A, Tables S1 and S2). Given the amphiphilic character of Platin-M with two cationic TPP head groups and lipophilic DBCO moieties, we questioned whether the high loading of Platin-M is due to formation of self-micelles.
Determination of Platin-M Ability to Form Micelles: Platin-M was dissolved in DMF to a final concentration of 1.5 mg/mL. This solution was added drop wise slowly into vigorously stirring nanopure water (10 mL) and stirred at room temperature for 3 h. This solution was then filtered and washed through Amicon filters with a MW cutoff of 100 kDa 3 times in order to ensure the removal of all residual organic solvent. Finally, the NPs were resuspended in nanopure water (1 mL) and filtered through a 0.2 μm filter. The resulting suspension was characterized by DLS.

[7] = test system: PCa PC3 cell line; experiment: MTT cytotoxicity assay, PC3; assay type: cell-based, human; settings: free drugs 72 h, NPs media changed after 12 h plus 60 h
Description: (§8) In vitro cytotoxicity of Platin-M, T-Platin-M, and NT-Platin-M was assessed by the 3-(4,5-dimethylthiazol-2-yl)-2,5-diphenyltetrazolium bromide or MTT assay on PCa PC3 cell line, human neuroblastoma SH-SY5Y cell line, and cisplatin resistant A2780/CP70 ovarian cancer cell line (Table 1). The rationale behind the use of androgen independent PC3 cell line was the inherent resistance of these cells to cisplatin therapy due to enhanced repair of Pt-nDNA adducts by the NER, poor targeting, and androgen-independent PCa with reduced normal mtDNA acquire a more progressive phenotype by inducing mutations to nDNA.
as §1

[8] = test system: human neuroblastoma SH-SY5Y cell line; experiment: MTT cytotoxicity assay, SH-SY5Y; assay type: cell-based; settings: free drugs 72 h, NPs media changed after 12 h plus 60 h
Description: as §8, §1

[9] = test system: nDNA; experiment: nDNA-Pt adduct quantification; assay type: cell-based, human; settings: treated PC3 cells, 12 h
Description: as §6, §7

[NH2][Pt]([NH2])([Cl])([Cl])([O]C(=O)CCCCCn1nnc2c1-c1ccccc1CN(C(=O)CCNC(=O)CCCCC[P+](c1ccccc1)(c1ccccc1)c1ccccc1)c1ccccc1-2)[O]C(=O)CCCCC[n+]1n[nH]c2c1-c1ccccc1CN(C(=O)CCNC(=O)CCCCC[P+](c1ccccc1)(c1ccccc1)c1ccccc1)c1ccccc1-2 [Platin-M]
toxicity in hMSCs less than in the resistant cells ([1]; human, 72 h): ~3 times | ATP-linked respiration on addition of oligomycin [2]: less reduction | basal OCR levels versus control cells [2]: less than control cells | stimulation of mitochondrial respiration with FCCP after oligomycin [2]: no enhancement in OCR levels | inhibition of mitochondrial respiration in A2780/CP70 cells compared to PC3 cells [3]: to a greater extent | ATP-linked respiration on addition of oligomycin [3]: less reduction | basal OCR levels versus control cells [3]: less than control cells | stimulation of mitochondrial respiration with FCCP after oligomycin [3]: no enhancement in OCR levels | mtDNA adduct compared to T-Platin-M-NP system ([4]; 12 h): marginally higher | Pt-mtDNA adduct formation ([4]; mtDNA isolated after 12 h): exhibited binding with mtDNA | Redox potential vs. Ag/AgCl ([5]; pH 6.0): −0.369 V | Redox potential vs. NHE ([5]; pH 6.0): −0.269 | Redox potential vs. Ag/AgCl ([5]; pH 7.4): −0.376 V | Redox potential vs. NHE ([5]; pH 7.4): −0.275 | PDI of particles from nanoprecipitation without polymer [6]: 0.799 | Size of particles from nanoprecipitation without polymer [6]: 941.6±589.5 nm | Zeta Potential of particles from nanoprecipitation without polymer [6]: −5.38±1.66 mV

N.N.[Cl][Pt][Cl] [Cisplatin, Cisdiamminedichloridoplatinum(II), reference compound]
IC50 [7]: 13.1 ± 0.1 µM | IC50 [8]: 19 µM | IC50 ([1]; hMSC, MTT, free drugs 72 h, NPs media changed after 12 h plus 60 h): 16.4 ± 0.5 µM | ATP-linked respiration on addition of oligomycin [2]: attenuated | basal OCR levels versus control cells [2]: did not show any changes | stimulation of mitochondrial respiration with FCCP after oligomycin [2]: comparable | ATP-linked respiration on addition of oligomycin [3]: attenuated | basal OCR levels versus control cells [3]: did not show any changes | stimulation of mitochondrial respiration with FCCP after oligomycin [3]: comparable | Pt-nDNA adduct formation [9]: much higher than the level of cisplatin adducts in mtDNA
